Experimental data: PubChem BioAssay AID328 (DTP/NCI, 2004)
Where “and” joins values, the source holds several entries; their conditions need not be identical. Equal entries are not always repeated. Toxic doses and inconclusive results are not listed.

Test system: BDF1 mice, P388 leukemia ip, median survival T/C
Test: NCI In Vivo Anticancer Drug Screen. Data for tumor model P388 Leukemia (intraperitoneal) in B6D2F1 (BDF1) mice
Settings: endpoint: median survival time, higher = longer survival
Outline: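 Steps: implant the tumour, treat one group with compound and another with vehicle, record survival, then divide treated by control.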

[1] = dose: 100.0 mg/kg/injection, schedule: Q04DX003 (ip), vehicle: saline
[2] = dose: 200.0 mg/kg/injection, schedule: Q01DX009 (ip), vehicle: saline
[3] = dose: 100.0 mg/kg/injection, schedule: Q04DX003 (ip), vehicle: saline with Tween-80
[4] = dose: 200.0 mg/kg/injection, schedule: Q04DX003 (ip), vehicle: saline with Tween-80
[5] = dose: 400.0 mg/kg/injection, schedule: Q04DX003 (ip), vehicle: saline with Tween-80
[6] = dose: 50.0 mg/kg/injection, schedule: Q01DX009 (ip), vehicle: saline with Tween-80
[7] = dose: 100.0 mg/kg/injection, schedule: Q01DX009 (ip), vehicle: saline with Tween-80
[8] = dose: 200.0 mg/kg/injection, schedule: Q01DX009 (ip), vehicle: saline with Tween-80
[9] = dose: 400.0 mg/kg/injection, schedule: Q01DX009 (ip), vehicle: saline with Tween-80
[10] = dose: 100.0 mg/kg/injection, schedule: Q01DX009 (ip), vehicle: water
[11] = dose: 100.0 mg/kg/injection, schedule: Q04DX003 (ip), vehicle: water
[12] = dose: 200.0 mg/kg/injection, schedule: Q01DX009 (ip), vehicle: water
[13] = dose: 200.0 mg/kg/injection, schedule: Q04DX003 (ip), vehicle: water
[14] = dose: 25.0 mg/kg/injection, schedule: Q01DX009 (ip), vehicle: saline with Tween-80
[15] = dose: 100.0 mg/kg/injection, schedule: Q04DX003 (ip), vehicle: Klucel (hydroxypropylcellulose) (HPC)

CNNC(=O)NC
T/C (dose: 2.06 mg/kg/injection, schedule: Q01DX009 (ip), vehicle: saline): 108 % of control | T/C (dose: 4.12 mg/kg/injection, schedule: Q01DX009 (ip), vehicle: saline): 116 % of control | T/C (dose: 8.25 mg/kg/injection, schedule: Q01DX009 (ip), vehicle: saline): 91 % of control | T/C (dose: 35.0 mg/kg/injection, schedule: Q04DX003 (ip), vehicle: saline): 109 % of control | T/C (dose: 55.0 mg/kg/injection, schedule: Q04DX003 (ip), vehicle: saline): 113 % of control | T/C (dose: 80.0 mg/kg/injection, schedule: Q04DX003 (ip), vehicle: saline): 118 % of control | T/C (dose: 120.0 mg/kg/injection, schedule: Q04DX003 (ip), vehicle: saline): 109 % of control | T/C (dose: 180.0 mg/kg/injection, schedule: Q04DX003 (ip), vehicle: saline): 113 % of control | T/C (dose: 270.0 mg/kg/injection, schedule: Q04DX003 (ip), vehicle: saline): 109 % of control

O=C1c2ccccc2C(=O)c2c(NCCN3CCCCC3)ccc(NCCN3CCCCC3)c21
T/C (dose: 50.0 mg/kg/injection, schedule: Q01DX009 (ip), vehicle: other): 115 % of control

FC1(F)C(F)(F)C(Cl)(Cl)C1(Cl)Cl
T/C (dose: 75.0 mg/kg/injection, schedule: Q01DX001 (ip), vehicle: saline): 100 % of control | T/C (dose: 150.0 mg/kg/injection, schedule: Q01DX001 (ip), vehicle: saline): 109 % of control | T/C (dose: 300.0 mg/kg/injection, schedule: Q01DX001 (ip), vehicle: saline): 104 % of control

O=CC(S)CO (configuration not stated)
T/C (dose: 12.5 mg/kg/injection, schedule: Q01DX010 (ip), vehicle: carboxymethylcellulose (CMC)): 122 % of control | T/C (dose: 25.0 mg/kg/injection, schedule: Q01DX010 (ip), vehicle: carboxymethylcellulose (CMC)): 122 % of control | T/C (dose: 50.0 mg/kg/injection, schedule: Q01DX010 (ip), vehicle: carboxymethylcellulose (CMC)): 166 % of control | T/C (dose: 100.0 mg/kg/injection, schedule: Q01DX010 (ip), vehicle: carboxymethylcellulose (CMC)): 166 % of control

CCN1CCN(Cc2ccccc2)C(CCl)C1 (configuration not stated)
T/C (dose: 12.5 mg/kg/injection, schedule: Q04DX003 (ip), vehicle: Klucel (hydroxypropylcellulose) (HPC)): 100 % of control | T/C (dose: 25.0 mg/kg/injection, schedule: Q04DX003 (ip), vehicle: Klucel (hydroxypropylcellulose) (HPC)): 100 % of control | T/C (dose: 50.0 mg/kg/injection, schedule: Q04DX003 (ip), vehicle: Klucel (hydroxypropylcellulose) (HPC)): 100 % of control

CN(CCO)/N=N/c1nc[nH]c1C(N)=O
T/C (dose: 1.56 mg/kg/injection, schedule: Q01DX009 (ip), vehicle: saline): 95 % of control | T/C (dose: 3.13 mg/kg/injection, schedule: Q01DX009 (ip), vehicle: saline): 100 % of control | T/C (dose: 6.25 mg/kg/injection, schedule: Q01DX009 (ip), vehicle: saline): 100 % of control | T/C (dose: 25.0 mg/kg/injection, schedule: Q01DX009 (ip), vehicle: saline): 92 % of control | T/C [1]: 105 % of control | T/C [2]: 110 % of control | T/C (dose: 200.0 mg/kg/injection, schedule: Q04DX003 (ip), vehicle: saline): 100 % of control | T/C (dose: 400.0 mg/kg/injection, schedule: Q01DX009 (ip), vehicle: saline): 100 % of control | T/C (dose: 400.0 mg/kg/injection, schedule: Q04DX003 (ip), vehicle: saline): 105 % of control

Clc1ccccc1CCCBr
T/C [3]: 95 % of control | T/C [4]: 100 % of control | T/C [5]: 105 % of control

O=C(C/C(=N\C(=S)Nc1cc(C(F)(F)F)ccc1Cl)NO)N1CCCC1
T/C [6]: 110 % of control

COC(OC)C1(O)CC(C(C)C)OC(=O)N1 (configuration not stated)
T/C (dose: 50.0 mg/kg/injection, schedule: Q04DX003 (ip), vehicle: saline): 97 % of control | T/C [1]: 105 % of control

COc1ncnc2nc[nH]c12
T/C [7]: 95 % of control | T/C [3]: 100 % of control | T/C [8]: 91 % of control | T/C [4]: 109 % of control | T/C [9]: 86 % of control | T/C [5]: 95 % of control

O=C(Cn1ccc(O)cc1=O)c1ccco1
T/C [7]: 100 % of control | T/C [3]: 100 % of control | T/C [8]: 95 % of control | T/C [4]: 109 % of control | T/C [9]: 104 % of control | T/C [5]: 104 % of control

CCNC(=O)c1cc2cccc(OC)c2oc1=N
T/C [2]: 86 % of control

COc1ccc2c(c1)CC[C@@H]1[C@@H]2CC[C@]2(C)/C(=N\O)CC[C@@H]12
T/C [7]: 104 % of control | T/C [8]: 109 % of control | T/C [9]: 90 % of control

CCN(CC)CC(C)=C(B1OC(C)(C)C(C)(C)O1)B1OC(C)(C)C(C)(C)O1
T/C (dose: 50.0 mg/kg/injection, schedule: Q01DX001 (ip), vehicle: saline): 110 % of control | T/C (dose: 100.0 mg/kg/injection, schedule: Q01DX001 (ip), vehicle: saline): 105 % of control | T/C (dose: 200.0 mg/kg/injection, schedule: Q01DX001 (ip), vehicle: saline): 100 % of control

CNC(=S)N1N=C(C)CC1=O
T/C (dose: 37.5 mg/kg/injection, schedule: Q01DX009 (ip), vehicle: saline with Tween-80): 106 % of control | T/C (dose: 75.0 mg/kg/injection, schedule: Q01DX009 (ip), vehicle: saline with Tween-80): 99 % of control

Cc1ccc(N=NN(C)C)cc1
T/C (dose: 33.0 mg/kg/injection, schedule: Q01DX009 (ip), vehicle: saline with Tween-80): 104 % of control | T/C [6]: 108 % of control

c1cc(Sc2cccc3nncn23)n2cnnc2c1
T/C (dose: 100.0 mg/kg/injection, schedule: Q01DX001 (ip), vehicle: saline with Tween-80): 103 % of control | T/C (dose: 200.0 mg/kg/injection, schedule: Q01DX001 (ip), vehicle: saline with Tween-80): 97 % of control | T/C (dose: 400.0 mg/kg/injection, schedule: Q01DX001 (ip), vehicle: saline with Tween-80): 103 % of control

CC(C)(N)CCC(C)(C)NCCC#N
T/C (dose: 50.0 mg/kg/injection, schedule: Q01DX009 (ip), vehicle: water): 103 % of control | T/C [10]: 99 % of control | T/C [11]: 110 % of control | T/C [12]: 122 % of control | T/C [13]: 103 % of control | T/C (dose: 400.0 mg/kg/injection, schedule: Q01DX009 (ip), vehicle: water): 114 % of control | T/C (dose: 400.0 mg/kg/injection, schedule: Q04DX003 (ip), vehicle: water): 103 % of control

Clc1ccc(-c2cc(=[N+]3CC[N+](=c4cc(-c5ccc(Cl)cc5)ss4)CC3)ss2)cc1
T/C (dose: 50.0 mg/kg/injection, schedule: Q04DX003 (ip), vehicle: water): 109 % of control | T/C [10]: 121 % of control | T/C [11]: 116 % of control | T/C [12]: 111 % of control | T/C [13]: 109 % of control

COc1cc2c(cc1OC)C(c1ccc(N=Cc3ccc(Cl)c(Cl)c3)cc1)N(C(=S)Nc1cc(Cl)ccc1Cl)CC2 (configuration not stated)
T/C [14]: 104 % of control | T/C [6]: 93 % of control and 97 % of control | T/C [7]: 95 % of control | T/C [8]: 89 % of control

N#Cc1cnc2n(c1=N)CCCCC2
T/C [15]: 94 % of control

O=C(O)C(=O)c1ccc(-c2ccccc2)cc1
T/C [14]: 90 % of control | T/C [6]: 100 % of control | T/C [7]: 113 % of control | T/C (dose: 150.0 mg/kg/injection, schedule: Q01DX009 (ip), vehicle: saline with Tween-80): 110 % of control

Nc1nc(-c2cccc3ccccc23)cc2ccccc12
T/C [14]: 115 % of control | T/C [6]: 119 % of control | T/C [7]: 151 % of control and 182 % of control | T/C [8]: 151 % of control

CCCCC(C(=O)OCC)C(CCC1CCCCC1)(C(=O)OCC)C(=O)OCC (configuration not stated)
T/C [15]: 91 % of control | T/C (dose: 200.0 mg/kg/injection, schedule: Q04DX003 (ip), vehicle: Klucel (hydroxypropylcellulose) (HPC)): 87 % of control | T/C (dose: 400.0 mg/kg/injection, schedule: Q04DX003 (ip), vehicle: Klucel (hydroxypropylcellulose) (HPC)): 100 % of control

COc1ccc(CC(=O)N2CCc3cc(OC)c(OC)cc3C2O)cc1OC (configuration not stated)
T/C (dose: 12.5 mg/kg/injection, schedule: Q01DX009 (ip), vehicle: saline with Tween-80): 101 % of control | T/C [14]: 89 % of control | T/C [6]: 94 % of control | T/C [7]: 114 % of control

CC(=O)OC1CC2c3ccccc3C1c1cccc[n+]12 (configuration not stated)
T/C (dose: 2.34 mg/kg/injection, schedule: Q01DX009 (ip), vehicle: Klucel (hydroxypropylcellulose) (HPC)): 87 % of control | T/C (dose: 4.68 mg/kg/injection, schedule: Q01DX009 (ip), vehicle: Klucel (hydroxypropylcellulose) (HPC)): 91 % of control | T/C (dose: 9.37 mg/kg/injection, schedule: Q01DX009 (ip), vehicle: Klucel (hydroxypropylcellulose) (HPC)): 91 % of control | T/C (dose: 18.75 mg/kg/injection, schedule: Q01DX009 (ip), vehicle: Klucel (hydroxypropylcellulose) (HPC)): 87 % of control
